Experimental data from PubChem BioAssay AID2060342 (Molecular Pharmacology Branch, DTP, NCI, 2025).
“And” between values parts separate entries of the source, which are not always exact repeats. Equal values may be shown once.

Tested on: 171881-019-R-J1-PDC multicell spheroid viability
Test: Anticancer human tumor 171881-019-R-J1-PDC patient-derived invasive breast carcinoma cell line growth inhibition [IpAb]
Settings: for viability, T/C: stronger effect = lower value; active = viability on the fitted dose curve at most 10% of control; inactive = the rest
Outline: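 Spheroids of 60% malignant cells, 25% HUVEC and 15% MSC were exposed to targeted agents combined with ipatasertib or abemaciclib. Doses started at or near clinical Cmax (10 microM when unknown) and fell in half-log steps.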

[1] = curve of first compound, second compound 0.1 µM
[2] = curve of first compound, second compound 0.316 µM
[3] = curve of first compound, second compound 1 µM
[4] = curve of first compound, second compound 3.16 µM
[5] = curve of first compound, second compound 10 µM
[6] = second compound 0.1 µM, first compound 0.00949 µM
[7] = second compound 0.1 µM, first compound 0.03 µM
[8] = second compound 0.1 µM, first compound 0.0949 µM
[9] = second compound 0.1 µM, first compound 0.3 µM
[10] = second compound 0.1 µM, first compound 0.949 µM
[11] = second compound 0.1 µM, first compound 3 µM
[12] = second compound 0.316 µM, first compound 0.00949 µM
[13] = second compound 0.316 µM, first compound 0.03 µM
[14] = second compound 0.316 µM, first compound 0.0949 µM
[15] = second compound 0.316 µM, first compound 0.3 µM
[16] = second compound 0.316 µM, first compound 0.949 µM
[17] = second compound 0.316 µM, first compound 3 µM
[18] = second compound 1 µM, first compound 0.00949 µM
[19] = second compound 1 µM, first compound 0.03 µM
[20] = second compound 1 µM, first compound 0.0949 µM
[21] = second compound 1 µM, first compound 0.3 µM
[22] = second compound 1 µM, first compound 0.949 µM
[23] = second compound 1 µM, first compound 3 µM
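Also: spheroids exposed to the agents for seven days before readout.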

CC(C)(C)c1cnc(CSc2cnc(NC(=O)C3CCNCC3)s2)o1
inactive: viability, T/C (compound 0.00949 µM) 96% and 96.9% | viability, T/C (compound 0.03 µM) 109% and 96.1% | viability, T/C (compound 0.0949 µM) 116% and 119%
20.1% and 3.63%: viability, T/C (compound 0.3 µM)
active: viability, T/C (compound 0.949 µM) 0.52% and 0.41% | viability, T/C (compound 3 µM) 0.65% and 0.81%
202 nM and 176 nM: IC50 (curve of compound)

Cc1nc(NC(=O)N2CCCC2C(N)=O)sc1-c1ccnc(C(C)(C)C(F)(F)F)c1 (stereo unspecified) + CC(C)NCC(C(=O)N1CCN(c2ncnc3c2C(C)CC3O)CC1)c1ccc(Cl)cc1
< 31.6 nM: IC50 [3] | IC50 [4] | IC50 [5]
active: viability, T/C (second compound 0.1 µM, first compound 10 µM) 1.41% | viability, T/C (second compound 0.316 µM, first compound 3.16 µM) 10.7% | viability, T/C (second compound 0.316 µM, first compound 10 µM) 1.29% | viability, T/C (second compound 1 µM, first compound 3.16 µM) 4.39% | viability, T/C (second compound 1 µM, first compound 10 µM) 0.88% | viability, T/C (second compound 3.16 µM, first compound 0.1 µM) 7.22% | viability, T/C (second compound 3.16 µM, first compound 0.316 µM) 7.33% | viability, T/C (second compound 3.16 µM, first compound 1 µM) 5.54% | viability, T/C (second compound 3.16 µM, first compound 3.16 µM) 3.24% | viability, T/C (second compound 3.16 µM, first compound 10 µM) 0.74% | viability, T/C (second compound 10 µM, first compound 0.0316 µM) 5.48% | viability, T/C (second compound 10 µM, first compound 0.1 µM) 4.17% | viability, T/C (second compound 10 µM, first compound 0.316 µM) 4.3% | viability, T/C (second compound 10 µM, first compound 1 µM) 2.72% | viability, T/C (second compound 10 µM, first compound 3.16 µM) 1.77% | viability, T/C (second compound 10 µM, first compound 10 µM) 0.6%
294 nM: IC50 [2]
inactive: viability, T/C (second compound 0.1 µM, first compound 0.0316 µM) 125% | viability, T/C (second compound 0.1 µM, first compound 0.1 µM) 108% | viability, T/C (second compound 0.1 µM, first compound 0.316 µM) 68.4% | viability, T/C (second compound 0.1 µM, first compound 1 µM) 38.1% | viability, T/C (second compound 0.1 µM, first compound 3.16 µM) 15.5% | viability, T/C (second compound 0.316 µM, first compound 0.0316 µM) 71.5% | viability, T/C (second compound 0.316 µM, first compound 0.1 µM) 58.9% | viability, T/C (second compound 0.316 µM, first compound 0.316 µM) 52.8% | viability, T/C (second compound 0.316 µM, first compound 1 µM) 18.8% | viability, T/C (second compound 1 µM, first compound 0.0316 µM) 24.8% | viability, T/C (second compound 1 µM, first compound 0.1 µM) 24.1% | viability, T/C (second compound 1 µM, first compound 0.316 µM) 21.3% | viability, T/C (second compound 1 µM, first compound 1 µM) 13.5% | viability, T/C (second compound 3.16 µM, first compound 0.0316 µM) 10.7%
651 nM: IC50 [1]

Cn1cnc2c(F)c(Nc3ccc(Br)cc3Cl)c(C(=O)NOCCO)cc21 + CC(C)NCC(C(=O)N1CCN(c2ncnc3c2C(C)CC3O)CC1)c1ccc(Cl)cc1
inactive: viability, T/C [6] 122% | viability, T/C [7] 125% | viability, T/C [8] 107% | viability, T/C [9] 75.1% | viability, T/C [10] 26.3% | viability, T/C [12] 72.7% | viability, T/C [13] 69.6% | viability, T/C [14] 62.4% | viability, T/C [15] 41.9% | viability, T/C [16] 14.2% | viability, T/C [18] 24.5% | viability, T/C [19] 26.6% | viability, T/C [20] 21.2% | viability, T/C [21] 13.3%
active: viability, T/C [11] 8.66% | viability, T/C [17] 4.26% | viability, T/C [22] 4.61% | viability, T/C [23] 1.63% | viability, T/C (second compound 3.16 µM, first compound 0.00949 µM) 8.87% | viability, T/C (second compound 3.16 µM, first compound 0.03 µM) 7.75% | viability, T/C (second compound 3.16 µM, first compound 0.0949 µM) 5.99% | viability, T/C (second compound 3.16 µM, first compound 0.3 µM) 5.01% | viability, T/C (second compound 3.16 µM, first compound 0.949 µM) 1.73% | viability, T/C (second compound 3.16 µM, first compound 3 µM) 0.77% | viability, T/C (second compound 10 µM, first compound 0.00949 µM) 5.26% | viability, T/C (second compound 10 µM, first compound 0.03 µM) 3.72% | viability, T/C (second compound 10 µM, first compound 0.0949 µM) 3.22% | viability, T/C (second compound 10 µM, first compound 0.3 µM) 1.9% | viability, T/C (second compound 10 µM, first compound 0.949 µM) 1.16% | viability, T/C (second compound 10 µM, first compound 3 µM) 0.44%
540 nM: IC50 [1]
< 9.49 nM: IC50 [3] | IC50 [4] | IC50 [5]
188 nM: IC50 [2]

CC(=O)c1c(C)c2cnc(Nc3ccc(N4CCNCC4)cn3)nc2n(C2CCCC2)c1=O
> 300 nM: IC50 (curve of compound)
inactive: viability, T/C (compound 0.000949 µM) 103% and 97.8% | viability, T/C (compound 0.003 µM) 92.6% and 92.2% | viability, T/C (compound 0.00949 µM) 102% and 103% | viability, T/C (compound 0.03 µM) 99.4% and 94% | viability, T/C (compound 0.0949 µM) 105% and 96.1% | viability, T/C (compound 0.3 µM) 115% and 105%

Cn1cnc2c(F)c(Nc3ccc(Br)cc3Cl)c(C(=O)NOCCO)cc21 + CCN1CCN(Cc2ccc(Nc3ncc(F)c(-c4cc(F)c5nc(C)n(C(C)C)c5c4)n3)nc2)CC1
1130 nM: IC50 (curve of first compound, second compound 0.0316 µM)
inactive: viability, T/C (second compound 0.01 µM, first compound 0.00949 µM) 97.1% | viability, T/C (second compound 0.01 µM, first compound 0.03 µM) 114% | viability, T/C (second compound 0.01 µM, first compound 0.0949 µM) 112% | viability, T/C (second compound 0.01 µM, first compound 0.3 µM) 114% | viability, T/C (second compound 0.01 µM, first compound 0.949 µM) 61.3% | viability, T/C (second compound 0.01 µM, first compound 3 µM) 13.9% | viability, T/C (second compound 0.0316 µM, first compound 0.00949 µM) 121% | viability, T/C (second compound 0.0316 µM, first compound 0.03 µM) 120% | viability, T/C (second compound 0.0316 µM, first compound 0.0949 µM) 130% | viability, T/C (second compound 0.0316 µM, first compound 0.3 µM) 109% | viability, T/C (second compound 0.0316 µM, first compound 0.949 µM) 56.8% | viability, T/C (second compound 0.0316 µM, first compound 3 µM) 14.6% | viability, T/C [6] 112% | viability, T/C [7] 138% | viability, T/C [8] 126% | viability, T/C [9] 99.7% | viability, T/C [10] 58.3% | viability, T/C [11] 15.9% | viability, T/C [12] 142% | viability, T/C [13] 142% | viability, T/C [14] 136% | viability, T/C [15] 116% | viability, T/C [16] 63.4% | viability, T/C [17] 23.4% | viability, T/C [18] 149% | viability, T/C [19] 142% | viability, T/C [20] 138% | viability, T/C [21] 106% | viability, T/C [22] 59.5% | viability, T/C [23] 25.8%
1400 nM: IC50 [2]
1150 nM: IC50 [1]
1250 nM: IC50 (curve of first compound, second compound 0.01 µM)
1320 nM: IC50 [3]

COc1c(OCCCN2CCOCC2)ccc2c3n(c(=NC(=O)c4cnc(N)nc4)nc12)CCN3
active: viability, T/C (compound 0.1 µM) 4.32% and 7.03% | viability, T/C (compound 0.316 µM) 1% and 1.49% | viability, T/C (compound 1 µM) 1.51% and 1.79%
14.6 nM and 20.2 nM: IC50 (curve of compound)
inactive: viability, T/C (compound 0.00316 µM) 109% and 115% | viability, T/C (compound 0.01 µM) 65.8% and 77.7% | viability, T/C (compound 0.0316 µM) 17.4% and 33.4%
